Legend:
[1] = target: T1, purified lysoPLD from human serum (Homo sapiens, UniProt Q13822); details: cited from earlier work
T1 construct: The purified lysoPLD from human serum; host or cells: human serum (purified; values quoted from Tokumura et al., J. Biol. Chem. 277:39436-42, 2002)

[2] = target: lysoPLD (Bos taurus, UniProt A1A4K5); details: 25° C.
Procedure: FIG. 9 illustrates the evaluation of the fluorogenic substrate FS-1 using fetal bovine serum which is known to be a rich source of LPA that is “self-regenerating” through the in situ activity of lysoPLD. (Umezu-Goto, et al., Journal of Cell Biology, 158:227-33. (2002)) A 10 mM stock solution of FS-1 in MeOH was added to 50 μL solutions of 1% or 10% FBS in PBS and incubated at 25° C. overnight. Measurements were taken on a Hewlett Packard Fusion instrument at 1, 3, 5, and 18 hours.

Molecule | Km [1] | Vmax [1] | fluorescence change on cleavage of the quenched substrate ([2]; 1% or 10% FBS in PBS, read at 1, 3, 5 and 18 hours, unoptimized assay) | substrate concentration of optimal conversion ([2]; FBS in PBS)
CCCCCCCCCCCCCCCC(=O)OC[C@@H](O)COP(=O)([O-])OCC[N+](C)(C)C [16:0 LPC] | 260 µM | 103 nmol/min |  | 
DABCYL-aminoethyl (N-BODIPY-FL®-aminocaproyl)-2-tert-buiylglycerylphosphate [FS-1] |  |  | increase in fluorescence with time | 100 µM

From patent US8512971B2, “Compounds and methods of use thereof for assaying lysophospholipase D activity” (Echelon Biosciences, Inc., priority 2002, dated 2013)
